The record followed here is ChEMBL document CHEMBL4619780, “Structure-Activity Relationship Studies of Retro-1 Analogues against Shiga Toxin” (J Med Chem, 2020).

A short description of assay [1]: cells. Type of assay: cell-based. The conditions noted are these: Escherichia coli, HeLa.
Assay [2] can be described thus: cells. In kind it is cell-based. Particulars: Escherichia coli, HeLa. The source holds these as a separate data set.
Assay [3] is described as follows: Inhibition of Escherichia coli shiga toxin.
A short description of assay [4]: cells. In kind it is cell-based. Particulars: Escherichia coli, HeLa. The source holds these as a separate data set.
A short description of assay [5]: cells. In kind it is cell-based. Particulars: Escherichia coli, HeLa. The source holds these as a separate data set.

Molecule `CCCN1CC(=O)Nc2ccc(Cl)cc2C1c1ccccc1` (configuration not stated) came in with an EC50 in the assay “cells [1]” of 12.8 µM.
`CC[C@@H](C(=O)[C@@H](C)[C@@H](O)[C@H](C)CCc1ccc(C)c(O)c1C(=O)O)[C@H]1O[C@](CC)([C@H]2CC[C@](O)(CC)[C@H](C)O2)C[C@@H]1C` [LASALOCID] gave an EC50 in “cells [2]” of 2 µM.
As for `CCCN1CC(=O)Nc2ccc(I)cc2C1c1ccccc1` (configuration not stated), the EC50 in “cells [1]” was determined as 1.98 µM. In other words, the single-digit micromolar range.
Molecule `O=C1CN(C2CCCCC2)C(c2ccccc2)c2cc(Br)ccc2N1` (configuration not stated) showed an EC50 in “cells [1]” of 4.7 µM.
Same read-out and setting: the value for `O=C1CN(C2CCCC2)C(c2ccccc2)c2cc(F)ccc2N1` (configuration not stated) was 2.29 µM.
`CC1(C)CC(/C=C/c2ccccc2)=Nc2ccccc2N1` gave an EC50 in assay [3] of 50 µM.
Take `C#CCCN1CC(=O)Nc2ccc(Br)cc2C1c1ccccc1` (configuration not stated): a half-maximal effect in the assay “cells [1]” (EC50) was put at 6.5 µM. That is a single-digit micromolar value.
In assay [3], `O=[N+]([O-])c1ccc(CSc2ncnc3c2ncn3[C@@H]2O[C@H](CO)[C@@H](O)[C@H]2O)cc1` [NITROBENZYLMERCAPTOPURINE RIBONUCLEOSIDE] showed an EC50 of 25 to 100 µM.
In turn, `O=C1CN(C2CCCC2)C(c2ccccc2)c2cc(I)ccc2N1` (racemic) had an EC50 in the assay “cells [1]” of 0.281 µM. That is a sub-micromolar value.
On the same count and under the same terms, the value for `CC1CCC(N2CC(=O)Nc3ccc(Br)cc3C2c2ccccc2)C1` (mixture of isomers) was 1.29 µM.
The molecule `C[C@H]1CCC/C=C/[C@@H]2C[C@H](O)C[C@H]2[C@H](O)/C=C/C(=O)O1` [BREFELDIN A] returned an EC50 in “cells [4]” of 5 µM.
For `CCCN1CC(=O)Nc2ccc(Br)cc2C1c1ccc(F)cc1F` (configuration not stated), in “cells [1]”, a half-maximal effect (EC50) was put at 12.8 µM.
The same measure, in the same setting: as for `O=C1CN(C2CCCC2)C(c2ccccc2)c2cc(Cl)ccc2N1` (configuration not stated), the figure is 0.844 µM.
For `O=C1CN(C2CCCC2)C(c2ccccc2)c2ccccc2N1` (configuration not stated), a half-maximal response in the assay “cells [1]” (EC50) required 6.11 µM.
`Cc1cccc(C)c1Nc1c(-c2cc(Br)ccc2O)nc2[nH]cnn12` displayed an EC50 in assay [3] of 25 µM.
Still for that read-out and setting: as for `CC/C(=C(\c1ccccc1)c1ccc(OCCN(C)C)cc1)c1ccccc1` [TAMOXIFEN], the figure is 2 to 10 µM.
Regarding `CCN1CC(=O)Nc2ccc(Br)cc2C1c1ccccc1` (configuration not stated), the EC50 in the assay “cells [1]” was determined as 8.81 µM.
The molecule `CCCC(=O)N1CC(=O)Nc2ccc(Br)cc2C1c1ccccc1` (configuration not stated) came in with an EC50 in “cells [1]” of 10.9 µM.
Same read-out and setting: the value for `O=C1CN(C2CCCC2)C(c2ccccc2)c2cc(Br)ccc2N1` (configuration not stated) was 0.6 µM.
Molecule `CCCN1CC(=O)Nc2ccc(Br)cc2C1c1ccccc1F` (configuration not stated) had an EC50 in the assay “cells [1]” of 3.87 µM. This EC50 is about 6.5-fold higher than that of the molecule before.
In “cells [1]”, `CCCN1CC(=O)Nc2ccc(N=[N+]=[N-])cc2C1c1ccccc1` (configuration not stated) returned an EC50 of 11.1 µM.
`Cc1ccc(C2Nc3ccccc3C(=O)N2c2ccccc2)s1` (configuration not stated) came in with an EC50 in the assay “cells [5]” of 27.3 µM.
The molecule `CC1CCCC1N1CC(=O)Nc2ccc(Br)cc2C1c1ccccc1` (mixture of isomers) gave a concentration for a half-maximal effect (EC50) in the assay “cells [1]” of 3.91 µM.
Same read-out and setting: the value for `CCCN1CC(=O)Nc2ccc(Br)cc2C1c1ccccc1` (configuration not stated) was 3.98 µM.
The molecule `CCC(=O)N1CC(=O)Nc2ccc(Br)cc2C1c1ccccc1` (racemic) showed an EC50 in “cells [5]” of 6.2 µM.
For the molecule `CC(C1CC1)N1CC(=O)Nc2ccc(Br)cc2C1c1ccccc1` (mixture of isomers), in the assay “cells [1]”, the EC50 came out at 5.16 µM.
Same read-out and setting: the value for `O=C1CN(C2CCCC2)[C@H](c2ccccc2)c2cc(I)ccc2N1` was 0.09 µM.

What is called EC50 is the concentration giving half of the maximal effect. A low value points to greater potency.
